Like-named read-outs stand apart in the source and are kept apart here.
Columns and labels:
[1] = test system: Enterococcus faecium ATCC 19434 which expresses AAC(6′)-li naturally; assay: Checkerboard assay, potentiation of kanamycin A on a resistant strain; type: cell-based; details: for effect on the MIC50 of kanamycin A: compound 512 μg/ml combined with kanamycin A, compared to kanamycin A alone
Procedure: General biological methods. Enterococcus faecium ATCC 19434, Staphylococcus aureus ATCC 29213 and 43300, Acinetobacter baumannii ATCC 19606, Pseudomonas aeruginosa ATCC 27853, Klebsiella penumoniae ATCC 13883, and Escherichia coli ATCC 25922 and 11775 were all purchased from Cedarlane (Burlington, ON). E. faecium was grown in Difco brain heart infusion media (BD, Mississauga, ON), S. aureus and P. aeruginosa were grown in Trypticase soy media (BD, Mississauga, ON), and E. coli, A. baumannii, and K. pneumoniae were grown in Nutrient media (BD, Mississauga, ON). Antibacterial tests were performed using Falcon™ Black with Clear Bottom 96-well Microtest™ Optilux plates (BD, Mississauga, ON).
(§1) Checkerboard assay to determine the synergistic activity of compounds 3a-f with kanamycin A or tobramycin on a resistant strain. A two dimensional checkerboard MIC assay was carried out as previously described [Gao F, Yan X, Shakya T, Baettig O M, Ait-Mohand-Brunet S, Berghuis A M, Wright G D, Auclair K; J Med Chem, 2006, 49:5273-5281] to observe for the potentiation activity of compounds 3a-f towards the antibacterial activity of kanamycin A or tobramycin against Enterococcus faecium ATCC 19434 which expresses AAC(6′)-li naturally, or an E. coli strain engineered to express AAC(6)-li. Compounds 3a-f were diluted by 2-fold sequential dilutions to create a gradient from 32 to 512 μg/mL while the concentrations used for kanamycin A or tobramycin were 0, 10, 20, 40, 50, 100, 150, 200, 250, and 300 μg/mL. The cultures were grown at 37° C. for 16 h in 96-well plates, and then monitored for optical density at 600 nm using a Spectramax 190 microplate reader (Molecular Devices, Sunnyvale, Calif.). Data was normalized against a positive growth control and reported as a percentage of bacterial cell growth. All data points are from quadruplicate experiments.

[2] = biological target: T1, E. coli pantothenate kinase (PanK or coaA enzyme) (Escherichia coli, UniProt P0A6I3); assay: PanK enzyme assay (Michaelis-Menten kinetics); type: biochemical; details: transformation by PanK; 25° C., Tris-HCl pH 7.6; triplicate
T1 construct: made in house
T1 sequence (P0A6I3 1-316): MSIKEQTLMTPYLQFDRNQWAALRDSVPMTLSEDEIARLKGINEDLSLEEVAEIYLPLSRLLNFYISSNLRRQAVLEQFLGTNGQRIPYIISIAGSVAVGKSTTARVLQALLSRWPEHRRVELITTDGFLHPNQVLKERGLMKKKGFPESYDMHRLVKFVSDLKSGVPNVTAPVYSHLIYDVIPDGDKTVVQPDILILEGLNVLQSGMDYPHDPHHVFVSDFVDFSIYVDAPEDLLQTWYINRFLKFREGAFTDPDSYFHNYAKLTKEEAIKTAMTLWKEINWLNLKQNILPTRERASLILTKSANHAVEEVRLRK
Procedure: PanK enzyme assay. The E. coli pantothenate kinase (PanK or coaA enzyme) was expressed and purified as previously described. Enzyme activity was measured as described in the literature [Strauss E, Begley T P J Biol Chem, 2002, 277:48205-48209]. This assay couples the production of ADP to the consumption of NADH through the activity of pyruvate kinase and lactic dehydrogenase. The decrease of NADH concentration was monitored at 340 nm. Reactions were performed at 25° C. in an Agilent 8453 UV-Vis spectrophotometer coupled to an Agilent 89090A Peltier temperature controller. Kinetic parameters were determined by fitting the rate data into the Michaelis-Menten equation using Prism 4.0 (GraphPad). Each reaction mixture (500 μL) contained ATP (1.5 mM), NADH (0.3 mM), phosphoenolpyruvate (0.5 mM), MgCl2 (10 mM), KCl (20 mM), pyruvate kinase (5 units), lactic dehydrogenase (5 units), and PanK (5 μg, 278 nM) in Tris-HCl buffer (50 mM, pH 7.6). The reaction was initiated by addition of the desired substrate (10-160 μM). All data points are from triplicate experiments.

PanK, PPAT and DPCK = assay: Biosynthetic in vitro assay with a mixture of PanK, PPAT and DPCK enzymes; type: biochemical; details: substrate 5.0 mM, 3 hours at room temperature; HPLC, approximate ± 5%, duplicate
Procedure: Biosynthetic in vitro assay with a mixture of PanK, PPAT and DPCK enzymes. The E. coli enzymes pantothenate kinase (PanK or coaA enzyme), phosphopantetheine adenylyltransferase (PPAT or coaD enzyme), and dephosphocoenzyme A kinase (DPCK or coaE enzyme) were expressed and purified as previously described [Geerlof A, Lewendon A, Shaw W V J Biol Chem 1999, 274:27105-27111]. Each reaction mixture (500 μL) contained ATP (5.0 mM), KCl (20 mM), MgCl2 (10 mM), DTT (2.0 mM), PanK (5 μg, 278 nM), PPAT (5 μg, 500 nM), DPCK (5 μg, 454 nM) in Tris-Cl Buffer (50 mM, pH 7.6). The reaction was initiated with the addition of pantetheine (5.0 mM) for comparison, water as a negative control, or compounds 3a-e (5.0 mM). Reactions were incubated for 3 hours at room temperature and then stopped by heating the mixture to 95° C. for 5 min. The precipitated protein was removed by centrifugation (13,000 rpm for 5 min) and the supernatant was analyzed by LC/MS. Reversed-phase analytical HPLC was performed with an analytical 4.60×250 mm, SYNERGI 4p Hydro-RP 80A (Phenomenex, Torrance, Calif.) column coupled to an Agilent 6120 Quadrupole LC/MS system for ESI-MS analysis. The HPLC conditions had the sample eluted at a flow rate of 0.5 mL min^−1 using a combination of mobile phase A (H2O) and mobile phase B (acetonitrile), Elution conditions are as follows: isocratic 1% phase B from 0-3 min; followed by the following linear gradients of phase B: 1-10% from 3-5 min; 10-15% from 5-10 min; 15-30% from 10-13 min; an finally isocratic phase B at 30% from 13-26 min. The detector was set to 214 nm. These experiments were run in duplicate.

[3] = test system: E. coli (BL21) harbouring AAC(6′)-li resistance gene in pET-22b(+) vector; assay: Checkerboard assay, potentiation of tobramycin on engineered E. coli; type: cell-based; details: tobramycin combined with compound; E. coli engineered to express AAC(6′)-li
Procedure: as §1

[4] = biological target: T1, E. coli pantothenate kinase (PanK or coaA enzyme); details: natural substrates of PanK; literature values (footnotes a, b); cited from earlier work

| Structure (SMILES) | effect on the MIC50 of kanamycin A [1] | Compounds detected by LC-MS: 6a-e, relative percentage (PanK, PPAT and DPCK) [%] | Compounds detected by LC-MS: 7a-e, relative percentage (PanK, PPAT and DPCK) [%] | Compounds detected by LC-MS: 2a-e, relative percentage (PanK, PPAT and DPCK) [%] | also measured |
| --- | --- | --- | --- | --- | --- |
| CC(C)(CO)[C@@H](O)C(=O)NCCC(=O)NCCSCC(=O)NC[C@H]1O[C@H](O[C@H]2[C@H](O)[C@@H](O)[C@H](N)C[C@@H]2N)[C@H](N)[C@@H](O)[C@@H]1O [Compound 3a, Neamine 6′-N—(R)-(3-((2-((2-amino-2-oxoethyl)thio)ethyl)amino)-3-oxopropyl)-2,4-dihydroxyl-3,3-dimethylbutanamide] | negligible effect | 5 | 25 | – | Km [2]: ≥ 500 µM; Compounds detected by LC-MS: 3a-e (starting material), relative percentage (PanK, PPAT and DPCK): 70% |
| CC(C)(CO)[C@@H](O)C(=O)NCCC(=O)NCCSCCC(=O)NC[C@H]1O[C@H](O[C@H]2[C@H](O)[C@@H](O)[C@H](N)C[C@@H]2N)[C@H](N)[C@@H](O)[C@@H]1O [Compound 3b, Neamine 6′-N—(R)-(3-((2-((2-amino-2-oxopropyl)thio)ethyl)amino)-3-oxopropyl)-2,4-dihydroxyl-3,3-dimethylbutanamide] | – | 20 | 70 | 10 | – |
| CC(C)(CO)[C@@H](O)C(=O)NCCC(=O)NCCSCCCC(=O)NC[C@H]1O[C@H](O[C@H]2[C@H](O)[C@@H](O)[C@H](N)C[C@@H]2N)[C@H](N)[C@@H](O)[C@@H]1O [Compound 3c, Neamine 6′-N—(R)-(3-((2-((2-amino-2-oxobutyl)thio)ethyl)amino)-3-oxopropyl)-2,4-dihydroxyl-3,3-dimethylbutanamide] | – | 5 | 40 | 55 | dose dependence of the potentiation of kanamycin A ([1]; compound 32 to 512 μg/mL with kanamycin A): dose-dependent effect |
| CC(C)(CO)[C@@H](O)C(=O)NCCC(=O)NCCSCCCCC(=O)NC[C@H]1O[C@H](O[C@H]2[C@H](O)[C@@H](O)[C@H](N)C[C@@H]2N)[C@H](N)[C@@H](O)[C@@H]1O [Compound 3d, Neamine 6′-N—(R)-(3-((2-((2-amino-2-oxopentyl)thio)ethyl)amino)-3-oxopropyl)-2,4-dihydroxyl-3,3-dimethylbutanamide] | drop by half | – | 10 | 90 | reduction in the MIC of tobramycin [3]: 10 fold |
| CC(C)(CO)[C@@H](O)C(=O)NCCC(=O)NCCSCCCCCC(=O)NC[C@H]1O[C@H](O[C@H]2[C@H](O)[C@@H](O)[C@H](N)C[C@@H]2N)[C@H](N)[C@@H](O)[C@@H]1O [Compound 3e, Neamine 6′-N—(R)-(3-((2-((2-amino-2-oxohexyl)thio)ethyl)amino)-3-oxopropyl)-2,4-dihydroxyl-3,3-dimethylbutanamide] | drop by half | – | 20 | 80 | – |
| CC(C)(CO)[C@@H](O)C(=O)NCCC(=O)NCCS [Pantetheine] | – | – | – | – | kcat [4]: 0.32 ± 0.02^b sec^−1 |
| CC(C)(CO)[C@@H](O)C(=O)NCCC(=O)O [Pantothenic acid] | – | – | – | – | Km [4]: 17 ± 2 µM; kcat [4]: 1.07 ± 0.04^a sec^−1 |
| NC[C@H]1O[C@H](O[C@H]2[C@H](O)[C@@H](O[C@H]3O[C@H](CO)[C@@H](O)[C@H](N)[C@H]3O)[C@H](N)C[C@@H]2N)[C@H](O)[C@@H](O)[C@@H]1O [kanamycin A, reference compound] | – | – | – | – | MIC50 of kanamycin A (minimum concentration causing a 50% growth inhibition) ([1]; kanamycin A alone, in the absence of compounds 3a-e): ~125 µg/mL |
